Counter-ions that a name gives are not always drawn.
Experiment: Storage stability of Vilazodone HCl polymorphic forms
Type: physicochemical
Settings: for storage stability: at accelerated condition (tables 3 & 4)
[1] = Stability at 40 ± 2° C. & 75 ± 5% RH, Final
[2] = Stability at 40 ± 2° C. & 75 ± 5% RH, Final, hydrochloride
[3] = Stability at 40 ± 2° C. & 75 ± 5% RH, Initial, hydrochloride
[4] = Stability at 60 ± 2° C., Final, hydrochloride
[5] = Stability at 60 ± 2° C., Initial, hydrochloride

| Description [1] | Purity [1] [%] | Moisture content [2] [%] | Moisture content [3] [%] | Purity [3] [%] | Description (Stability at 60 ± 2° C., Final) | Moisture content [4] [%] | Purity [4] [%] | Moisture content [5] [%] | Purity [5] [%] | storage stability | Description [3] | Description [5] | SMILES |
| --- | --- | --- | --- | --- | --- | --- | --- | --- | --- | --- | --- | --- | --- |
| white to off | 99.60 | 1.29 | 1.10 | 99.65 | white to off | 0.76 | 99.65 | 1.10 | 99.65 | good storage stability |  |  | N#Cc1ccc2[nH]cc(CCCCN3CCN(c4ccc5oc(C(N)=O)cc5c4)CC3)c2c1 [Form A, 1-[4-(5-cyanoindol-3-yl)butyl]-4-(2-carbamoylbenzofuran-5-yl) piperazine hydrochloride] |
| white to off | 99.60 | 1.91 | 2.06 | 99.62 | white to off | 0.81 | 99.60 | 2.06 | 99.62 | good storage stability | white to off | white to off | N#Cc1ccc2[nH]cc(CCCCN3CCN(c4ccc5oc(C(N)=O)cc5c4)CC3)c2c1 [Form B, 1-[4-(5-cyanoindol-3-yl)butyl]-4-(2-carbamoylbenzofuran-5-yl) piperazine hydrochloride] |

— US20140303185A1, “NOVEL POLYMORPHS OF VILAZODONE HYDROCHLORIDE” (ORCHID CHEMICALS & PHARMACEUTICALS LIMITED, priority 2013, published 2014)
